Laboratory results taken from patent publication US11583498B2 (Wakamono Corporation, priority 2020, dated 2023).

Assays:
[1] = Water dispersibility comparison (FIG. 1); format: physicochemical; details: dispersed in water, vials of FIG. 1
Excerpt: With reference to FIG. 1, water dispersibility was compared between the known 95% Tan IIA and nano Tan IIA obtained by the process according to the present invention, in which Vial A represented the known 95% Tan IIA dispersed in water, Vial B represented nano Tan IIA dispersed in water obtained by the process according to the present invention.

[2] = oral administration; cited from earlier work

water dispersibility [1]: water insoluble
Structure (SMILES): Cc1coc2c1C(=O)C(=O)c1c-2ccc2c1CCCC2(C)C [Tan IIA, Tanshinone IIA]
bioavailability [2]: low bioavailability
